Results on three compounds are retold here after article PMC3260189, “The Location and Nature of General Anesthetic Binding Sites on the Active Conformation of Firefly Luciferase; A Time Resolved Photolabeling Study” (PLoS ONE, 2012).

The target of assay [1] is T1, American firefly luciferase (Photinus pyralis, UniProt P08659).
T1 construct: recombinant luciferase
The experiment in a line: equilibrium photolabeling with LC-MSMS. The class given is binding.

Assay [2] deals with T1, American firefly luciferase. The experiment in a line: stopped-flow inhibition of initial light output. It counts as biochemical.
The target is the same in assay [3]. The experiment in a line: stopped-flow inhibition of initial ATP-induced light output; photolabeling with LC-MSMS also done. The class given is biochemical.
Assay [4] deals with T2, Japanese firefly luciferase (Nipponoluciola cruciata, UniProt P13129).
T2 construct: recombinant luciferase
T2 sequence (P13129 1-548): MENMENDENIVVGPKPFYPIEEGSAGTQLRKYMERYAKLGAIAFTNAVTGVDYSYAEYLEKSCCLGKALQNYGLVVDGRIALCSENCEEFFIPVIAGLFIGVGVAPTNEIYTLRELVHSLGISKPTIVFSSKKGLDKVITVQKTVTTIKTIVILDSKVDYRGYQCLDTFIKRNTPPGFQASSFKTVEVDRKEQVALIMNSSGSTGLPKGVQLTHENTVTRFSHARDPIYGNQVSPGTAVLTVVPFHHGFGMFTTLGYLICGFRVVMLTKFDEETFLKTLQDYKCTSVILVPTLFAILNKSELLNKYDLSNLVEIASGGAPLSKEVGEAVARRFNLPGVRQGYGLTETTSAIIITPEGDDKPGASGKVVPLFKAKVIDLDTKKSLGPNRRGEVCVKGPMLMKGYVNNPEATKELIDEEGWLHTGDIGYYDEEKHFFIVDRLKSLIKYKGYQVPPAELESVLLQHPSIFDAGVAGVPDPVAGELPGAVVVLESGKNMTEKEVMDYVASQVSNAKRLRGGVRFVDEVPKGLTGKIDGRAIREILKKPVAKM
In words: [3H] photoincorporation and time-resolved photolabeling with LC-MSMS. The class given is binding.

T1 sequence (P08659 whole entry): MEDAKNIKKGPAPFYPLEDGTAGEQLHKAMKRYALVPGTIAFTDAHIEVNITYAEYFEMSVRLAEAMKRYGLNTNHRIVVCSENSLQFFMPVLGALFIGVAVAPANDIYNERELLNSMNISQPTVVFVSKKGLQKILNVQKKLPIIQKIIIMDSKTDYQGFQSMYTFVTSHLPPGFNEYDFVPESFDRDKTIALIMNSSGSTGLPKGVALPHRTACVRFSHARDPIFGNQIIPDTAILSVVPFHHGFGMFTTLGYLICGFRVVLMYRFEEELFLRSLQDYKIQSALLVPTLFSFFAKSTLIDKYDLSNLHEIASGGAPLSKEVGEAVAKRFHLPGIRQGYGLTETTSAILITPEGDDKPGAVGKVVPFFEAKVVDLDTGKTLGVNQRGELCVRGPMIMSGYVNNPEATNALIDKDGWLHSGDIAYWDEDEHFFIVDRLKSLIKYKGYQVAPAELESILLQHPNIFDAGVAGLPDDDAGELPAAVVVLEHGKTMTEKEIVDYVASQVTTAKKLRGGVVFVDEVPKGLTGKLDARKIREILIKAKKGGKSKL

For `CC1(CCCCCCO)N=N1` [7-azioctanol], in assay [1], the “equilibrium photolabeling with LC-MSMS” value is “photolabeled the American firefly luciferase at equilibrium with the azialkanols, and found the labeling pattern to be identical”.
As usually defined, the IC50 is the concentration needed to halve the response being measured. Take `CCCCCCCCO` [1-octanol]: the 50% inhibitory concentration (IC50) in assay [2] is on record as ~ 225 µM.
In general, Kd refers to the equilibrium constant for the complex coming apart. A low value points to tighter binding. Regarding `CCCCCC1(CCO)N=N1` [3-azioctanol, 3-(2-hydroxyethyl)-3-n-pentyldiazirine], in assay [3], the IC50 came to 200 ± 46 µM. In assay [4], this compound yielded a Kd of over 1000 µM.
